Data from publication PMC7159882, “Polyunsaturated fatty acid analogues differentially affect cardiac NaV, CaV, and KV channels through unique mechanisms” (eLife, 2020).

Assays:
Type in all cases: cell-based
Nav1.5/β1 = target: T1, Nav1.5/β1 (Homo sapiens, UniProt Q14524); test: Two-electrode voltage clamp of Nav1.5/β1 expressed in Xenopus oocytes; conditions: for INa I/I0: relative current at 0 mV
T1 construct: Nav1.5 (UniProt: Q14524.1); expressed in transfected cells; host or cells: Xenopus laevis oocytes (cRNA injection, Nav1.5:β1 2:1 by weight)
Description: (§1) Molecular Biology cRNA encoding Kv7.1 (UniProt: P51787), KCNE1 (UniProt: P15382.1), Nav1.5 (UniProt: Q14524.1), Nav β1 (UniProt: […]), Nav β3 (UniProt: […]), Cav1.2 (GenBank: CAA84346), Cav β3 (Uniprot: P54286), Cav β2 (Uniprot: P54288), and Cav α2δ (Uniprot: P13806) were transcribed using the mMessage mMachine T7 kit (Ambion). 50 ng of cRNA was injected into defolliculated Xenopus laevis oocytes (Ecocyte, Austin, TX): For Kv7.1/KCNE1 channel expression, we injected a 3:1, weight:weight (Kv7.1:KCNE1) cRNA ratio. For Nav1.5 channel expression, we injected a 2:1, weight:weight (Nav1.5:β1) cRNA ratio. For Cav1.2 channel expression, we injected a 2:1:1, weight:weight (Cav1.2:β3:α2δ) cRNA ratio. The exact stoichiometry for channel macromolecular complexes, including α -subunits and auxiliary subunits is not clear for many ion channels. For example, there have been multiple reported stoichiometries for Kv7.1:KCNE1 determined in heterologous expression systems with some groups reporting flexible stoichiometry of 4 Kv7.1: 1–4 KCNE1 and others reporting a fixed stoichiometry of 4 Kv7.1: 2 KCNE1 ([Murray et al., 2016]; [Nakajo et al., 2010]). The ratios of cRNA of α- and auxiliary subunits that we injected in Xenopus laevis oocytes are such that all α-subunits are assumed to be in complex with auxiliary subunits. This allows a more homogenous population of ion channels with auxiliary subunits. One caveat to expressing ion channels as macromolecular complexes is that there are many other auxiliary subunits that could associate with the channel α -subunit that are present in cardiomyocytes and have the potential to alter PUFA-induced effects, but that are not being co-expressed in our experiments. In this work, we are co-expressing some of the auxiliary subunits that have been primarily reported to associate with their respective α -subunits in cardiomyocytes. Following cRNA injection, cells were incubated for 72–96 hr in standard ND96 solution (96 mM NaCl, 2 mM KCl, 1 mM MgCl2, 1.8 mM CaCl2, 5 mM HEPES; pH = 7.5) containing 1 mM pyruvate at 16°C prior to electrophysiological recordings.
(§2) Xenopus laevis oocytes were recorded in the two-electrode voltage clamp (TEVC) configuration. Recording pipettes were filled with 3 M KCl. The recording chamber was filled with ND96 (96 mM NaCl, 2 mM KCl, 1 mM MgCl2, 1.8 mM CaCl2, 5 mM HEPES; pH 7.5). For Cav1.2/β3/α2δ channel recordings, Xenopus oocytes were injected with 50 nl of 100 mM EGTA and incubated at 10°C for 30 min prior to electrophysiological recordings in order to sequester cytosolic calcium. In addition, Cav1.2/β3/α2δ channel recordings were done in Ca^2+-free solutions, using Ba^2+ as the charge carrier, to prevent calcium-dependent inactivation of Cav1.2/β3/α2δ channels. Calcium-dependent inactivation was not studied in this work, due to the presence of large calcium-activated chloride currents present in Xenopus laevis oocytes. PUFAs were obtained from Cayman Chemical (Ann Arbor, MI.) or synthesized in house (Linköping, Sweden) through methods previously described ([Bohannon et al., 2020]) and kept at −20 °C as 100 mM stock solutions in ethanol. Serial dilutions of the different PUFAs were prepared from stocks to make 0.2 μM, 0.7 μM, 2 μM, 7 μM, and 20 μM concentrations in ND96 solutions (pH = 7.5). PUFAs were perfused into the recording chamber using the Rainin Dynamax Peristaltic Pump (Model RP-1) (Rainin Instrument Co., Oakland, CA. USA).
(§3) Electrophysiological recordings were obtained using Clampex 10.3 software (Axon, pClamp, Molecular Devices). To measure Kv7.1/KCNE1 currents we apply PUFAs as the membrane potential is stepped every 30 s from −80 mV to 0 mV for 5 s before stepping to −40 mV and back to −80 mV to ensure that the PUFA effects on the current at 0 mV reached steady state. A voltage-step protocol was used to measure the current vs. voltage (I-V) relationship before PUFA application and after the PUFA effects had reached steady state for each concentration of PUFA. […]

Cav1.2/β3/α2δ = target: T2, Cav1.2/β3/α2δ (Homo sapiens, UniProt Q13936); test: Two-electrode voltage clamp of Cav1.2/β3/α2δ expressed in Xenopus oocytes (Ba2+ as charge carrier); conditions: for ICa I/I0: relative current at 0 mV
T2 construct: expressed in transfected cells; host or cells: Xenopus laevis oocytes (cRNA injection, Cav1.2:β3:α2δ 2:1:1 by weight)
T2 sequence (Q13936 1-2138 isoform Q13936-20): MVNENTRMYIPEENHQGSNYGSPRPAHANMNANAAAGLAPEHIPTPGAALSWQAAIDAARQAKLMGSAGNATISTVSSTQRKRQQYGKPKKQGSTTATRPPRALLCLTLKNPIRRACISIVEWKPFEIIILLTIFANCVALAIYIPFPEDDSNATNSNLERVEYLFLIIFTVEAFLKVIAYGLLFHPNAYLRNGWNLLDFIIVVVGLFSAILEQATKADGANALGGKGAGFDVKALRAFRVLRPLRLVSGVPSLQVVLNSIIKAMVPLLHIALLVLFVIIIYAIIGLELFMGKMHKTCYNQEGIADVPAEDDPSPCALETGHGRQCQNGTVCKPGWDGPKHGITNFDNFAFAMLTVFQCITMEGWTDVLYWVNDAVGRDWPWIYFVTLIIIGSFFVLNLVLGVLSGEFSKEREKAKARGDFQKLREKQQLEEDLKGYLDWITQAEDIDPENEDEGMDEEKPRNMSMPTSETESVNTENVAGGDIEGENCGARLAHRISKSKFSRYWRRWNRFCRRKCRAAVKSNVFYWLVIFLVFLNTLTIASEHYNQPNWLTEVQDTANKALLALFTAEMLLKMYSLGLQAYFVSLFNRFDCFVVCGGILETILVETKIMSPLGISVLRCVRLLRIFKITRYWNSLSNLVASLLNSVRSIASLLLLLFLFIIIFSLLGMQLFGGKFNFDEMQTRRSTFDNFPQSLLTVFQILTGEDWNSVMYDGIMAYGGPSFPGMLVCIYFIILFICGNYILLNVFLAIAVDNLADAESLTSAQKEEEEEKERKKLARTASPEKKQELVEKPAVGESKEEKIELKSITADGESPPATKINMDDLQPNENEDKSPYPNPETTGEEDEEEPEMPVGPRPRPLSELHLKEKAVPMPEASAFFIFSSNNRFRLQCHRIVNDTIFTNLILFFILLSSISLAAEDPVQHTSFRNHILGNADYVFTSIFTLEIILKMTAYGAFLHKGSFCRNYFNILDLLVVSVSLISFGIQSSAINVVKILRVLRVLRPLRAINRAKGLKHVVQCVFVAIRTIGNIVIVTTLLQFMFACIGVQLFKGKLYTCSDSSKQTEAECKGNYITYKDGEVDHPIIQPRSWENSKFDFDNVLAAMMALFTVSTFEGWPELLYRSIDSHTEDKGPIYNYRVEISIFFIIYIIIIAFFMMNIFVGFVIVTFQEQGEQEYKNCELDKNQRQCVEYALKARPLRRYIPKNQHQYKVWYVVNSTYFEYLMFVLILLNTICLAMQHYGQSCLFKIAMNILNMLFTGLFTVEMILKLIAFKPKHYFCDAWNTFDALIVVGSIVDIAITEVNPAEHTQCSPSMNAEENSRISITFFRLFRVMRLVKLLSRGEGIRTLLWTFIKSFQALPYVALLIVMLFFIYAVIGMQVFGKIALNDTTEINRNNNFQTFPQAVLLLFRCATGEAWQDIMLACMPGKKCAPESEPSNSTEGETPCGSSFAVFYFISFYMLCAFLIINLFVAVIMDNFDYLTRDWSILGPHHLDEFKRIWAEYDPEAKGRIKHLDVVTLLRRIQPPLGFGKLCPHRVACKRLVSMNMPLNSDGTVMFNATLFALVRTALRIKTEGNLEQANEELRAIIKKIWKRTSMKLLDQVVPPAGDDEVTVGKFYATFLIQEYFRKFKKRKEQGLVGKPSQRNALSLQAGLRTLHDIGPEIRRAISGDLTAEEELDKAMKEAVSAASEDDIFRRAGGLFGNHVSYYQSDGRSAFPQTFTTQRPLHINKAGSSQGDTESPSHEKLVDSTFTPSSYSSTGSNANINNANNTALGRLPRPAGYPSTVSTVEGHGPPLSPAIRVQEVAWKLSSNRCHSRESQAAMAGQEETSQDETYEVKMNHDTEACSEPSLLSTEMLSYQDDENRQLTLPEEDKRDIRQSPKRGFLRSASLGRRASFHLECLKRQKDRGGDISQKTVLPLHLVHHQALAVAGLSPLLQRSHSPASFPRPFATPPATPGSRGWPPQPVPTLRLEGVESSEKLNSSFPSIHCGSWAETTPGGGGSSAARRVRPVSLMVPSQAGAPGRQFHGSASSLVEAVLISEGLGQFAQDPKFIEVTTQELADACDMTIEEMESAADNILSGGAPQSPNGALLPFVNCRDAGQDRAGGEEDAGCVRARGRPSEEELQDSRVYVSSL
T2 sequence (P54286 whole entry partner): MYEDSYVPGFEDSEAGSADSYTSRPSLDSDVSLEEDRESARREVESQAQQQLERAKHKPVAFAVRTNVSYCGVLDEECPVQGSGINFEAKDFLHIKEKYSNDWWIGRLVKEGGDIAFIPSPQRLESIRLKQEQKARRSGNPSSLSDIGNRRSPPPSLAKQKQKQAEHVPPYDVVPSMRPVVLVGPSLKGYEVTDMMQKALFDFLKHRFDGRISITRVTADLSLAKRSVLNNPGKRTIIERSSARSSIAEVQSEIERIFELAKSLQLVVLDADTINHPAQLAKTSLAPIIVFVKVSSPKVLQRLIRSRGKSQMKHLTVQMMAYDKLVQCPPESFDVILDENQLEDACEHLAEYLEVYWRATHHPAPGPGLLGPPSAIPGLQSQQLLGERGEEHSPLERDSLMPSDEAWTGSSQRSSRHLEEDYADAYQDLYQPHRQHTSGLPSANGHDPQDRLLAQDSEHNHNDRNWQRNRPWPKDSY
T2 sequence (P13806 27-960 partner): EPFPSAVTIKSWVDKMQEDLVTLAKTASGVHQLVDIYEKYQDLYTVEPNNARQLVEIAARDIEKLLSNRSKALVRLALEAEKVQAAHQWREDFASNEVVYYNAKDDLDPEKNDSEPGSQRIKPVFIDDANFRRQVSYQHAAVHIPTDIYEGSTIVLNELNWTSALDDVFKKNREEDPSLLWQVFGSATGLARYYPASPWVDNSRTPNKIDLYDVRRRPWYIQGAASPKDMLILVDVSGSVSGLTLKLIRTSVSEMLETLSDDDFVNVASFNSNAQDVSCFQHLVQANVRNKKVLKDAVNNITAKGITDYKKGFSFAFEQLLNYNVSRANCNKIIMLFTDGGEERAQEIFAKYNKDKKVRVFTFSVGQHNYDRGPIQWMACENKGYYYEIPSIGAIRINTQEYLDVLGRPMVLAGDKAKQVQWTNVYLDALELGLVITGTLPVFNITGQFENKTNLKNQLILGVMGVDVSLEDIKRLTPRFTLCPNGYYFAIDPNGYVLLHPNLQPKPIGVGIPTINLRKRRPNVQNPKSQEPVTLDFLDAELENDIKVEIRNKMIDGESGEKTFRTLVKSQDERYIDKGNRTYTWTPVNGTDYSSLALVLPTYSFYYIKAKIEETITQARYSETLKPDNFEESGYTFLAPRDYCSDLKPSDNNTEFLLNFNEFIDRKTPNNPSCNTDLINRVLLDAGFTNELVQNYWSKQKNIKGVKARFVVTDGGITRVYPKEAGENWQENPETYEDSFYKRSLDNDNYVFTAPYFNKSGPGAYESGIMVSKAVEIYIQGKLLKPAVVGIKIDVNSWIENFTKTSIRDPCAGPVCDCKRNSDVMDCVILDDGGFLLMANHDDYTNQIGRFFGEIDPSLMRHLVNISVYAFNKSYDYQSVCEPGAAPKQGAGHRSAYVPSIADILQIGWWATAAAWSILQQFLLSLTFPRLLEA
T2 sequence (P13806 961-1106 partner): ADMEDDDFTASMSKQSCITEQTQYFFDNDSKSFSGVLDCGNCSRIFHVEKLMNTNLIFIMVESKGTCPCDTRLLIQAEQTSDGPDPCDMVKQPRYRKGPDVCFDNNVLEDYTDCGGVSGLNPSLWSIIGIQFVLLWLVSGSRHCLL
Description: as §1, §2, §3

Kv7.1/KCNE1 = target: T3, Kv7.1/KCNE1 (Homo sapiens, UniProt P51787); test: Two-electrode voltage clamp of Kv7.1/KCNE1 expressed in Xenopus oocytes; design: Fitted slope factor of conductance vs voltage relationship: unit of the concentration uncertain; conditions: for IKs I/I0: relative current at 0 mV
T3 construct: cRNA encoding Kv7.1 (UniProt: P51787), KCNE1 (UniProt: P15382.1); expressed in transfected cells; host or cells: Xenopus laevis oocytes (cRNA injection, Kv7.1:KCNE1 3:1 by weight)
Description: as §1
as §2, with “Serial dilutions of the different PUFAs were prepared from stocks to make 0.2 μM, 0.7 μM, 2 μM, 7 μM, and 20 μM concentrations in ND96 solutions (pH = 7.5).” left out
as §3, with “PUFA. Cells were held at −80 mV followed by a hyperpolarizing prepulse to −140 mV.” for “PUFA.”

For `CC/C=C\C/C=C\C/C=C\C/C=C\C/C=C\C/C=C\CCC(=O)NCCS(=O)(=O)O` [DHA-taurine], the Gmax/Gmax0 (Nav1.5/β1; 0.2 μM) was 1.0 ± 0.01, the “ΔV0.5 (voltage dependence of inactivation)” value (Nav1.5/β1; 0.2 μM) was -0.5 ± 0.3 mV and the “INa I/I0” value (Nav1.5/β1; 0.2 μM) was 1.0 ± 0.03. The Gmax/Gmax0 (Nav1.5/β1; 0.7 μM) was 0.9 ± 0.01, the “ΔV0.5 (voltage dependence of inactivation)” value (Nav1.5/β1; 0.7 μM) was -2.6 ± 0.5 mV and the “INa I/I0” value (Nav1.5/β1; 0.7 μM) was 1.0 ± 0.03. For the same compound, the Gmax/Gmax0 (Nav1.5/β1; 2 μM) was 0.6 ± 0.03, the “ΔV0.5 (voltage dependence of inactivation)” value (Nav1.5/β1; 2 μM) was -9.4 ± 1.6 mV and the “INa I/I0” value (Nav1.5/β1; 2 μM) was 0.7 ± 0.04. The Gmax/Gmax0 (Nav1.5/β1; 7 μM) was 0.1 ± 0.01, the “ΔV0.5 (voltage dependence of inactivation)” value (Nav1.5/β1; 7 μM) was −28.5 ± 0.6 mV and the Gmax/Gmax0 (Nav1.5/β1; 20 μM) was 0.04 ± 0.01. The “ΔV0.5 (voltage dependence of inactivation)” value (Nav1.5/β1; 20 μM) was -63.2 ± 10.9 mV, the “INa I/I0” value (Nav1.5/β1; 20 μM) was 0.1 ± 0.03 and the Gmax/Gmax0 (Cav1.2/β3/α2δ; 0.2 μM) was 1.0 ± 0.05. For the same compound, the “ΔV0.5 (voltage dependence of inactivation)” value (Cav1.2/β3/α2δ; 0.2 μM) was 1.7 ± 0.7 mV, the “ICa I/I0” value (Cav1.2/β3/α2δ; 0.2 μM) was 0.9 ± 0.04 and the Gmax/Gmax0 (Cav1.2/β3/α2δ; 0.7 μM) was 1.1 ± 0.1. For the same compound, the “ΔV0.5 (voltage dependence of inactivation)” value (Cav1.2/β3/α2δ; 0.7 μM) was 1.6 ± 0.8 mV, the “ICa I/I0” value (Cav1.2/β3/α2δ; 0.7 μM) was 1.0 ± 0.03 and the Gmax/Gmax0 (Cav1.2/β3/α2δ; 2 μM) was 1.1 ± 0.07. The “ΔV0.5 (voltage dependence of inactivation)” value (Cav1.2/β3/α2δ; 2 μM) was 1.7 ± 1.0 mV, the “ICa I/I0” value (Cav1.2/β3/α2δ; 2 μM) was 1.0 ± 0.03 and the Gmax/Gmax0 (Cav1.2/β3/α2δ; 7 μM) was 1.1 ± 0.1. For the same compound, the “ΔV0.5 (voltage dependence of inactivation)” value (Cav1.2/β3/α2δ; 7 μM) was 0.2 ± 0.8 mV, the Gmax/Gmax0 (Cav1.2/β3/α2δ; 20 μM) was 0.8 ± 0.1 and the “ΔV0.5 (voltage dependence of inactivation)” value (Cav1.2/β3/α2δ; 20 μM) was -3.8 ± 0.9 mV. For the same compound, the “ICa I/I0” value (Cav1.2/β3/α2δ; 20 μM) was 0.7 ± 0.1, the “Fitted slope factor of conductance vs voltage relationship” value (Kv7.1/KCNE1; 0.2 μM) was 18.7 ± 1.1 mV and the Gmax/Gmax0 (Kv7.1/KCNE1; 0.2 μM) was 1.1 ± 0.04. The “ΔV0.5 (voltage dependence of activation)” value (Kv7.1/KCNE1; 0.2 μM) was -1.5 ± 0.4 mV, the “IKs I/I0” value (Kv7.1/KCNE1; 0.2 μM) was 1.1 ± 0.03 and the “Fitted slope factor of conductance vs voltage relationship” value (Kv7.1/KCNE1; 0.7 μM) was 18.6 ± 1.2 mV. The Gmax/Gmax0 (Kv7.1/KCNE1; 0.7 μM) was 1.3 ± 0.1, the “ΔV0.5 (voltage dependence of activation)” value (Kv7.1/KCNE1; 0.7 μM) was -5.0 ± 1.7 mV and the “IKs I/I0” value (Kv7.1/KCNE1; 0.7 μM) was 1.4 ± 0.08. The “Fitted slope factor of conductance vs voltage relationship” value (Kv7.1/KCNE1; 2 μM) was 18.6 ± 1.3 mV, the Gmax/Gmax0 (Kv7.1/KCNE1; 2 μM) was 1.6 ± 0.2 and the “ΔV0.5 (voltage dependence of activation)” value (Kv7.1/KCNE1; 2 μM) was -17.5 ± 2.0 mV. The “IKs I/I0” value (Kv7.1/KCNE1; 2 μM) was 2.9 ± 0.5, the “Fitted slope factor of conductance vs voltage relationship” value (Kv7.1/KCNE1; 7 μM) was 18.1 ± 1.2 mV and the Gmax/Gmax0 (Kv7.1/KCNE1; 7 μM) was 1.7 ± 0.1. For the same compound, the “ΔV0.5 (voltage dependence of activation)” value (Kv7.1/KCNE1; 7 μM) was −45.3 ± 2.9 mV, the Gmax/Gmax0 (Kv7.1/KCNE1; 20 μM) was 1.1 ± 0.9 and the “ΔV0.5 (voltage dependence of activation)” value (Kv7.1/KCNE1; 20 μM) was -70.5 ± 6.0 mV. For the same compound, the “IKs I/I0” value (Kv7.1/KCNE1; 20 μM) was 3.1 ± 0.4.
